We go through 19 compounds from patent publication US20260272797A1, “FRAGRANCE COMPOSITION” (GIVAUDAN SA, priority 2023, published 2026).

Experiment [1] can be described thus: Impact of fragrance ingredients on scalp malodour counteractancy of 80 fragrance compositions (Example 2 protocol, statistical presence). The following applies: series of 80 fragrance compositions. The procedure: In a second set of experiments, the impact of these fragrance ingredients on the scalp malodour counteractancy of a fragrance composition was assessed. The scalp malodour counteractancy of a series of 80 fragrance compositions was assessed by performing the evaluation protocol described in Example 2. […] Ingredients that were statistically more present in fragrances having a high malodour counteractancy were assigned a positive status, whereas ingredients that were statistically more present in compositions having a low malodour counteractancy were assigned a negative status.

A short description of experiment [2]: Gas-phase evaluation of each fragrance ingredient alone against model scalp malodour, MiniVAS device, panel of 5 experts. The note with it: for Scalp MOC of ingredient alone: expert description. The procedure: In a first set of experiments, the scalp malodour counteractancy of 173 fragrance ingredients was evaluated by panel of 5 experts.
The evaluation was performed in the gas phase, using a MiniVAS™ device (ex Givaudan SA). This device is a regulating means that comprises a plurality of channels adapted to convey a gas (more particularly air) through cartridges, each cartridge containing a fragrance ingredient adsorbed onto an adsorbent. The air flows coming from the different cartridges are admixed and conveyed to the user's nose through a tubing fitted with an olfactometer funnel. Thus, by opening and closing channels and maintaining these opened and closed, respectively, for predetermined times, the regulating means can determine which fragrance ingredients and how much thereof are conveyed and when, and thus alter the nature of the fragrance perceived by the user. A description of the device can be found in WO2014154909A1, page 2, line 11 to page 4, line 7, and in H. R. Gygax et al. “Evolution of Real Time Aroma Creation at Givaudan”, poster presented at the 12th Weurman Flavour Research Symposium. July 2008. Interlaken, Switzerland; DOI: 10.13140/2.1.1924.0641.
For the sake of the present evaluation, one cartridge contained the scalp malodour (in the form of a model malodour) and each fragrance ingredient was assigned to another cartridge. The malodour counteractancy of each fragrance ingredient was evaluated separately against the scalp malodour. A constant air flow rate of 50 ml/min was used for all measurements. The perceived malodour intensity, as well as the fragrance intensity, were ranked on a scale of 1-5 (1=barely noticeable, 2=weak, 3=medium, 4=strong and 5=very strong).

Setting [3] is: Table 4, air flow 50 ml/min, scale of 1-5.
The mark [4] stands for this setting: Table 3, air flow 50 ml/min, scale of 1-5 (1=barely noticeable, 5=very strong).

Structures are written as SMILES.

In the case of `CCCCC1CCC(=O)O1` (stereo not shown) [5-butyloxolan-2-one], in experiment [1] (Table 4), the “Impact on scalp MOC of fragrance composition” value (“Impact on scalp MOC” below) is given as “Negative”. In addition, the MO intensity in experiment [2] (setting [3]) was found to be 3.8.

As for `C/C=C/C(=O)C1=C(C)C=CCC1(C)C` [(E)-1-(2,6,6-trimethylcyclohexa-1,3-dien-1-yl)but-2-en-1-one], the “Impact on scalp MOC” value in experiment [1] (Table 3) was “Positive”. In addition, the MO intensity in experiment [2] (setting [4]) is listed as 2.8.

For `CCCCCCCC(=O)OCC` [ethyl octanoate], the “Impact on scalp MOC” value in experiment [1] (Table 3) is “Positive”. In experiment [2] (setting [4]), this compound gave an MO intensity of 1. The “Scalp MOC of ingredient alone” value in experiment [2] (Table 3, gas phase) is recorded as “No effect”.

On to `CCC(=O)C(C)CC=C(C)C` (stereo not shown) [4,7-dimethyloct-6-en-3-one], for which the “Impact on scalp MOC” value in experiment [1] (Table 4) is recorded as “Negative”. This compound registered an MO intensity in experiment [2] (setting [3]) of 4.

As to `CCCCCCCCCCC=O` [undecanal], the “Impact on scalp MOC” value in experiment [1] (Table 4) is reported as “Negative”. Moreover, in experiment [2] (setting [3]), the MO intensity is recorded as 1. The “Scalp MOC of ingredient alone” value in experiment [2] (Table 4, gas phase) is on record as “Enhances MO”.

`CCCCCCC(=O)OCC` [ethyl heptanoate]: the “Impact on scalp MOC” value in experiment [1] (Table 3) is recorded as “Positive”. The compound also showed an MO intensity in experiment [2] (setting [4]) of 1. For the same compound, the “Scalp MOC of ingredient alone” value in experiment [2] (Table 3, gas phase) was “No effect”.

With `O=C1CCC/C=C\CCCCCCCCCC1` [(Z)-cyclohexadec-5-enone], the “Impact on scalp MOC” value in experiment [1] (Table 4) was “Negative”. In experiment [2] (setting [3]), this compound came in with an MO intensity of 1. For the same compound, the “Scalp MOC of ingredient alone” value in experiment [2] (Table 4, gas phase) is “Enhances MO”.

For the compound `CC(C)C(=O)OCCOc1ccccc1` [2-(phenoxy)ethyl 2-methylpropanoate], in experiment [1] (Table 4), the “Impact on scalp MOC” value is on record as “Negative”. The compound also came in with an MO intensity in experiment [2] (setting [3]) of 2.3.

Turning to `CC(=O)OCc1ccccc1` [benzyl acetate], in experiment [1] (Table 4), the “Impact on scalp MOC” value is “Negative”. Moreover, the MO intensity in experiment [2] (setting [3]) is on record as 0. The “Scalp MOC of ingredient alone” value in experiment [2] (Table 4, gas phase) is listed as “Enhances MO”.

For `CCOC(=O)C(C)C` [ethyl 2-methylpropanoate], in experiment [1] (Table 3), the “Impact on scalp MOC” value is “Positive”. For the same compound, the MO intensity in experiment [2] (setting [4]) was found to be 1. Moreover, the “Scalp MOC of ingredient alone” value in experiment [2] (Table 3, gas phase) is “No effect”.

`Cc1ccc2c(c1)OCC(=O)CO2` [8-methyl-1,5-benzodioxepin-3-one]: in experiment [1] (Table 3), the “Impact on scalp MOC” value is recorded as “Positive”. The compound further had an MO intensity in experiment [2] (setting [4]) of 3.5.

As to `CC(CC=O)CCCC(C)(C)O` (stereo not shown) [7-hydroxy-3,7-dimethyloctanal], the “Impact on scalp MOC” value in experiment [1] (Table 3) is reported as “Positive”. The MO intensity in experiment [2] (setting [4]) is reported as 2.

In the case of `CC/C=C\CC1=C(C)CCC1=O` [(Z)-3-methyl-2-(pent-2-en-1-yl)cyclopent-2-enone], in experiment [1] (Table 4), the “Impact on scalp MOC” value was “Negative”. In experiment [2] (setting [3]), this compound showed an MO intensity of 1.8. For the same compound, in experiment [2] (Table 4, gas phase), the “Scalp MOC of ingredient alone” value is listed as “Low coverage”.

Regarding `N#CC(=C1CCCCC1)c1ccccc1` [2-cyclohexylidene-2-phenylacetonitrile], the “Impact on scalp MOC” value in experiment [1] (Table 4) is on record as “Negative”. For the same compound, in experiment [2] (setting [3]), the MO intensity was determined as 1.

In the case of `CC1=CC[C@H]2C(C1)C1CC2[C@@]2(C1)OC2C` (stereo partly drawn) [(2R,8aS)-3′,6-dimethyl-3,4,4a,5,8,8a-hexahydro-1H-spiro[1,4-methanonaphthalene-2,2′-oxirane]], in experiment [1] (Table 3), the “Impact on scalp MOC” value was “Positive”. The MO intensity in experiment [2] (setting [4]) worked out at 1. The “Scalp MOC of ingredient alone” value in experiment [2] (Table 3, gas phase) was “No effect”.

Consider `CCCCCCCCCC(C)C=O` (stereo not shown) [2-methylundecanal], for which, in experiment [1] (Table 3), the “Impact on scalp MOC” value is “Positive”. In addition, the MO intensity in experiment [2] (setting [4]) is recorded as 3.5.

For `CC(C)=CCC(C)C1CC1(C)CO` (stereo not shown) [1-methyl-2-(5-methylhex-4-en-2-yl)cyclopropylmethanol], the “Impact on scalp MOC” value in experiment [1] (Table 3) is “Positive”. Besides, in experiment [2] (setting [4]), the MO intensity was 2.7.

For the compound `CC(=O)/C=C/C1C(C)=CCCC1(C)C` (stereo not shown) [(E)-4-(2,6,6-trimethyl-1-cyclohex-2-enyl)but-3-en-2-one], the “Impact on scalp MOC” value in experiment [1] (Table 4) is on record as “Negative”. The compound also came in with an MO intensity in experiment [2] (setting [3]) of 4.5.

As for `CC1(C)[C@H]2CC[C@]1(C)C(=O)C2` [(1S,4S)-1,7,7-trimethylbicyclo[2.2.1]heptan-2-one], in experiment [1] (Table 3), the “Impact on scalp MOC” value is “Positive”. The MO intensity in experiment [2] (setting [4]) worked out at 4.5.
